# Columns and labels:
# [1] = system: MCF7 ER-positive breast cancer model; assay: In vivo combination studies in MCF7 ER-positive breast cancer xenograft model; set-up: species or system mice; details: for Difference (Treatment 1 − Treatment 2): Treatment 1 = Vehicle, log10 tumor volume
# Description: Otherwise, the statistical conclusion is additive.
# [2] = target: ERα (wild type) (Homo sapiens (Human), UniProt P03372); assay: ERα (wild type) competition binding assay; details: 3H-estradiol competition; Ki from IC50 by Cheng-Prusoff
# ERα (wild type), sequence (P03372 whole entry): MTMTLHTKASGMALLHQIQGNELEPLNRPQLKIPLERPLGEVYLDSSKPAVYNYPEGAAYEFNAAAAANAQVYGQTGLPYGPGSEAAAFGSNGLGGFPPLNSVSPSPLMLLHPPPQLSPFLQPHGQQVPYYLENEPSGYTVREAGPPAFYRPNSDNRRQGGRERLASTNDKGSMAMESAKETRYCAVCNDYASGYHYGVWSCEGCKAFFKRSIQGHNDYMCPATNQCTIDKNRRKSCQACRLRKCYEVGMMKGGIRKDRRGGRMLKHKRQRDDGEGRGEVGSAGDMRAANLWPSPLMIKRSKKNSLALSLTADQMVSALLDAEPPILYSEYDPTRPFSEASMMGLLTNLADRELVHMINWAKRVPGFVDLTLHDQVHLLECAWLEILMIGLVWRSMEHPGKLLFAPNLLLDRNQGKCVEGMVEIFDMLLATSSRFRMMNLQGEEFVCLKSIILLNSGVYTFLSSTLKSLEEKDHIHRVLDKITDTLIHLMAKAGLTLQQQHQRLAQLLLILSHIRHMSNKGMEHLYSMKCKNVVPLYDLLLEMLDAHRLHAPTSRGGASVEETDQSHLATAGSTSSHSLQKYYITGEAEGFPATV
# Description: (§1) Add the test compound at 10 different concentrations ranging from 10,000 nM to 0.5 nM, and determine nonspecific binding in the presence of 1 μM of 1713 estradiol. Incubate the binding reaction (140 μL) for 4 hours at room temperature, and then add cold dextran-charcoal buffer (70 μL) (containing per 50 mL of assay buffer, 0.75 g of charcoal and 0.25 g of dextran) to each reaction. Mix the plates for 8 minutes on an orbital shaker at 4° C. and then centrifuge at 3000 rpm at 4° C. for 10 minutes. Transfer an aliquot (120 μL) of the mixture to another 96-well, white flat bottom plate (Costar) and add Perkin Elmer Optiphase Supermix scintillation fluid (175 μL) to each well. Seal the plates and shake vigorously on an orbital shaker. After an incubation of 2.5 hours, read the plates in a Wallac Microbeta counter. […] Convert the IC50 values for the compound to Ki using Cheng-Prusoff equation.
# [3] = target: ERα (Y537S mutant) (Homo sapiens (Human), UniProt P03372, Y537S); assay: ERα (Y537S mutant) competition binding assay; details: 3H-estradiol competition; Ki from IC50 by Cheng-Prusoff
# ERα (Y537S mutant), sequence (P03372 whole entry Y537S): as the sequence (P03372 whole entry) above, with Y537S counted along it
# Description: as §1
# [4] = target: T1, ERα (Homo sapiens (Human), UniProt P03372); assay: ERα degradation assay in MCF7 cells; type: cell-based; details: 24 hours, % ER positive cells, read-out: Relative IC50
# T1 sequence (P03372 whole entry): as the sequence (P03372 whole entry) above
# Description: The purpose of the following ERα degradation assay is to measure the degradation of ERα by a test compound in an ERα positive breast cancer cell line such as MCF7.
# Culture MCF7 (purchased from ATCC HTB-22) cells in DMEM media supplemented with 10% FBS, 0.01 mg/mL human insulin 1 and 1% penicillin/streptomycin antibiotics and plate in 384-well flat-bottom plates at a density of 4,000 cells per well in phenol red free DMEM media (20 μL) containing 10% charcoal stripped FBS. Incubate the cells overnight in a cell culture incubator (5% CO2, 95% relative humidity and 37° C.) and allow the cells to attach to the plate. The following day dose the cells with the test compound. Use an Echo 555 acoustic dispenser to prepare test compound serial dilutions (1:3) in a range from 6 μM to 0.0003 μM. Dose the cells with the addition of 5 μL from the serial dilution plate to the cell plate producing a final DMSO concentration of 0.2% with a final test compound concentration dose range between 2 and 0.0001 μM. For the maximum point, use media containing 0.2% of DMSO and for the minimum point, use fulvestrant diluted at 2 μM final concentrations in the growth media containing 0.2% DMSO. After dosing with the test compound, incubate the cell plates at 37° C. and 5% CO2 for 24 hours. Fix the cells by adding 14% para-formaldehyde (10 μL) for 30 minutes at room temperature. Wash the cells once with PBS (20 μL) and incubate with PBS (20 μL) containing 0.5% (v/v) TWEEN® 20 for 1 hour. Wash the cells with PBS containing 0.05% TWEEN® 20 (2×) and block with 3% BSA in PBS containing 0.05% TWEEN® 20 and 0.1% TRITON™ X-100 (20 μL/well) for 1 hour at room temperature. Add 1:500 Primary antibody (20 μL) (ERα (Clone SP1) monoclonal rabbit antibody # RM-9101-S, Thermo Scientific) dilution in 1% BSA in PBS containing 0.05% TWEEN® 20 per well, seal the plates and incubate overnight at 4° C. The following day wash the cells with PBS containing 0.05% TWEEN® 20 (2×) and incubate with secondary antibody (20 μL/well) (1:1000 dilution, Goat anti-rabbit IgM ALEXA FLUOR™ 488) in PBS 1% BSA for 105 minutes at room temperature. […] Seal the plates and incubate 1 hour at room temperature on the bench (preserved from light). Scan the plates with ACUMEN EXPLORER™ [Laser-scanning fluorescence microplate cytometer manufactured by TTP LABTECH LTD] to measure ERα. Image analysis is based on cellular fluorescent signals for identifying positive cells. Identify ER positive cells by mean intensity. Use total intensity at 575-640 nm from propidium iodide/DNA to identify individual cells. Assay output is % ER positive cells. Determine the IC50 by curve fitting to a four parameter logistic for each output using GENE DATA™.
# [5] = target: Y537N mutant ERα receptor (Homo sapiens, UniProt P03372, Y537N); assay: PRα inhibition (ERα functional antagonism) cell assay in MCF7-ESR1 Y537N 682 CRISPR cells; type: cell-based; details: MCF7 Y537N 682 CRISPR cells, 72 hours, % PR positive cells; read-out: Relative IC50
# Description: An antagonist in this assay is expected to block the function of the ERα receptor.
# Incubate the cells overnight in a cell culture incubator (5% CO2, 95% relative humidity and 37° C.) and allow the cells to attach to the plate. The following day dose the cells with the test compound. Use an Echo 555 acoustic dispenser to prepare compound serial dilutions (1:3) in a range from 6 μM to 0.0003 μM. Dose the cells with the addition of 5 μL from the serial dilution plate to the cell plate producing a final DMSO concentration of 0.2% with a final test compound concentration dose range between 2 and 0.0001 μM. For the maximum point use media containing 0.2% of DMSO and for the minimum point, use fulvestrant diluted at 2 μM final concentrations in the growth media containing 0.2% DMSO. After dosing with test compound, incubate the cell plates at 37° C. and 5% CO2 for 72 hours. Fix the cells by adding 14% para-formaldehyde (10 μL) for 30 minutes at room temperature. Wash the cells with PBS (1×20 μL) and incubate with PBS (20 μL) of containing 0.5% (v/v) TWEEN® 20 for 1 hour. Wash the cells with PBS (2×20 μL) 0.05% TWEEN® 20, and block with 3% BSA/PBS 0.05% TWEEN® 20, 0.1% TRITON™ X-100 (20 μL/well) for 1 hour at room temperature. Add 1:500 primary antibody (20 μL) (PR monoclonal mouse anti-human antibody, clone PgR 636 Dako, M3569) dilution in 1% BSA/PBS 0.05 TWEEN® 20 per well, seal the plates and incubate overnight at 4° C.
# The following day, wash the cells with PBS […] (2×20 μL) and incubate with secondary antibody (20 μL/well) (1:1000 dilution, Goat anti-rabbit IgM ALEXA FLUOR™ 488) in PBS 1% BSA for 105 minutes at room temperature. […] Seal the plates and incubate 1 hour at room temperature on the bench (preserved from light). Scan the plates with ACUMEN EXPLORER™ [Laser-scanning fluorescence microplate cytometer manufactured by TTP LABTECH LTD] to measure PRα. Image analysis is based on cellular fluorescent signals for identifying positive cells. Identify PR positive cells by mean intensity. Use total intensity at 575-640 nm from propidium iodide/DNA to identify individual cells. Assay output is % PR positive cells. Determine the IC50 by curve fitting to a four parameter logistic for each output using GENE DATA™.
# [6] = target: T1, ERα; assay: PRα inhibition (ERα functional antagonism) cell assay in MCF7 cells; type: cell-based; details: MCF7 cells pretreated with 0.47 nM estradiol, % PRα positive cells; read-out: Relative IC50
# Description: The purpose of the following PRα inhibition (ERα functional antagonism) cell assay is to determine the antagonistic activity of a test compound against the ERα receptor. An antagonist in this assay is expected to block the function of the ERα receptor.
# Carry out the assay conditions as detailed in the ERα degradation Cell base Acumen assay above, using the MCF7 cell line except that, prior to test compound dispensing, remove the media from the cell plate and pretreat all wells except for the negative control wells (column 24 of the plate) with assay media containing 0.47 nM estradiol for 30 minutes. In this assay, carry out immunostaining for the detection of PRα and scan the plates with ACUMEN EXPLORER™ [Laser-scanning fluorescence microplate cytometer manufactured by TTP LABTECH LTD] to measure PRα. Image analysis is based on cellular fluorescent signals for identifying positive cells. Identify PRα positive cells by mean intensity. Use total intensity at 575-640 from propidium iodide/DNA to identify individual cells. Assay output is % PRα positive cells. Determine the IC50 by curve fitting to a four parameter logistic for each output using GENE DATA™.
SMILES,Ki [2],Ki [3],DC50 [4],IC50 [5],also measured
"CCN1CCN(Cc2ccc(Nc3ncc(F)c(-c4cc(F)c5nc(C)n(C(C)C)c5c4)n3)nc2)CC1 [Abemaciclib, abemaciclib, reference compound]",–,–,–,–,"Delta T/C % or % Regression ([1]; Example 1B 10 mpk, Abemaciclib 50 mpk, QD × 42, PO (Table 16)): −52%; Delta T/C % or % Regression ([1]; Example 10 15 mpk, Abemaciclib 50 mpk, QD × 42, PO (Table 20)): −70%; Difference (Treatment 1 − Treatment 2) ([1]; Example 1B 10 mpk, Abemaciclib 50 mpk, QD × 42, PO): 0.479; Difference (Treatment 1 − Treatment 2) ([1]; Example 10 15 mpk, Abemaciclib 50 mpk, QD × 42, PO): 0.445"
"CO[C@H]1C[C@@H]2CC[C@@H](C)[C@@](O)(O2)C(=O)C(=O)N2CCCC[C@H]2C(=O)O[C@H]([C@H](C)C[C@@H]2CC[C@@H](OCCO)[C@H](OC)C2)CC(=O)[C@H](C)/C=C(\C)[C@@H](O)[C@@H](OC)C(=O)[C@H](C)C[C@H](C)/C=C/C=C/C=C/1C [Everolimus, everolimus, reference compound]",–,–,–,–,"Delta T/C % or % Regression ([1]; Example 10 15 mpk, Everolimus 5 mpk, QD × 42, PO (Table 24)): −50%; Difference (Treatment 1 − Treatment 2) ([1]; Example 10 15 mpk, Everolimus 5 mpk, QD × 42, PO): 0.433"
"CO[C@@H](C)Cn1c(=O)n(C)c2cnc3ccc(-c4cncc(C(C)(C)O)c4)cc3c21 [Compound A, 8-[5-(1-hydroxy-1-methylethyl)pyridin-3-yl]-1-[(2 S)-2-methoxypropyl]-3-methyl-1,3-dihydro-2H-imidazo[4,5-c]quinolin-2-one, reference compound]",–,–,–,–,"Delta T/C % or % Regression ([1]; Example 1B 10 mpk QD × 42, Compound A 7.5 mpk BID × 42, PO (Table 18)): −36%; Difference (Treatment 1 − Treatment 2) ([1]; Example 1B 10 mpk QD × 42, Compound A 7.5 mpk BID × 42, PO): 0.504"
"Oc1ccc2c3c(cnc2c1)-c1ccc(Cl)cc1OC3c1ccc(OCCN2CC(CF)C2)cc1 (single isomer, unassigned) [Example 3B, 8-Chloro-5-(4-{2-[3-(fluoromethyl)azetidin-1-yl]ethoxy}phenyl)-5H-[1]benzopyrano[4,3-c]quinolin-2-ol]",0.59 nM,2.79 nM,8.66 nM,16 nM,IC50 [6]: 34.4 nM
"Oc1ccc2c3c(cnc2c1)-c1ccc(Cl)cc1OC3c1ccc(OCCN2CC(CF)C2)cc1 (single isomer, unassigned) [Example 3A, 8-Chloro-5-(4-{2-[3-(fluoromethyl)azetidin-1-yl]ethoxy}phenyl)-5H-[1]benzopyrano[4,3-c]quinolin-2-ol]",8.11 nM,27.2 nM,390 nM,612 nM,IC50 [6]: 927 nM
"Cc1nc(NC(=O)N2CCC[C@H]2C(N)=O)sc1-c1ccnc(C(C)(C)C(F)(F)F)c1 [alpelisib, reference compound]",–,–,–,–,"Delta T/C % or % Regression ([1]; Example 10 15 mpk, alpelisib 15 mpk (d1-d7), 10 mpk (d8-42), QD × 42, PO (Table 22)): −21%; Difference (Treatment 1 − Treatment 2) ([1]; Example 10 15 mpk, alpelisib 15 mpk (d1-d7), 10 mpk (d8-42), QD × 42, PO): 0.445"
"Oc1ccc2c3c(cnc2c1)-c1ccc(Cl)cc1OC3c1ccc(OCCN2CC(CF)C2)cc1 (racemic) [Example 3, 8-chloro-5-(4-{2-[3-(fluoromethyl)azetidin-1-yl]ethoxy}phenyl)-5H-[1]benzopyrano[4,3-c]quinolin-2-ol]",2.36 nM,6.69 nM,33.5 ± 7.83 nM,77.2 ± 11.5 nM,–
